The values below come from the NIST ThermoML archive (doi:10.1016/j.jct.2017.05.026).

Numbers after ± are expanded uncertainties.

A short description of data set [1]: xn = mol fraction of the nth substance listed. To be noted: 298 K, 100 kPa, Crystal, X-ray diffraction.
The nature of data set [2]: excess molar enthalpy (molar enthalpy of mixing); xn = mol fraction of the nth substance listed. To be noted: 298 K, 100 kPa, Crystal, Calvet calorimetry.

The term mass density denotes mass per unit of volume. As for `[O-2].[O-2].[Th+4]` [thorium dioxide] + [O-2].[O-2].[U+4], the mass density in data set [1] (x1 = 0.2209) worked out at 10730 ± 90 kg/m3; in data set [1] (x1 = 0.4319), 10510 ± 90 kg/m3; in data set [1] (x1 = 0.7519), 10070 ± 90 kg/m3. In addition, the excess molar enthalpy in data set [2] (x1 = 0.2209) was -1.65 ± 0.765 kcal/mol; in data set [2] (x1 = 0.4319), 0.37 ± 1.12 kcal/mol; in data set [2] (x1 = 0.7519), -0.282 ± 0.669 kcal/mol.

As for `[O-2].[O-2].[Zr+4]` [zirconium oxide] + [O-2].[O-2].[U+4], the mass density was 10630 ± 90 kg/m3 in data set [1] (x1 = 0.0847), 10260 ± 90 kg/m3 in data set [1] (x1 = 0.1557) and 9570 ± 70 kg/m3 in data set [1] (x1 = 0.2937). The excess molar enthalpy was -2.18 ± 1 kcal/mol in data set [2] (x1 = 0.0847), -2.12 ± 0.837 kcal/mol in data set [2] (x1 = 0.1557) and 0.194 ± 0.765 kcal/mol in data set [2] (x1 = 0.2937).
